According to US20220117972A1, “USE OF PPAR-DELTA AGONISTS IN THE TREATMENT OF MITOCHONDRIAL MYOPATHY” (Reneo Pharmaceuticals, Inc., priority 2019, published 2022):
pEC50: −log10 of the molar value. “Also recorded” adds a separate entry of the source. Read-outs that look alike come from different tables or passages of the source.

What was measured:
[1] = system: primary mitochondrial myopathy patients; assay: clinical trial for primary mitochondrial myopathy (PMM); assay type: in vivo, human
[2] = system: human muscle cell lines; assay: fatty acid oxidation in human muscle cell line; assay type: cell-based; settings: in vitro
[3] = biological target: T1, hPPARδ (Homo sapiens, UniProt Q03181); assay: PPAR receptor transactivation assay, human PPARδ; assay type: cell-based
T1 construct: expressed in transfected cells; host or cells: Jump-In GripTite HEK293
T1 sequence (Q03181 211-439 limits assumed): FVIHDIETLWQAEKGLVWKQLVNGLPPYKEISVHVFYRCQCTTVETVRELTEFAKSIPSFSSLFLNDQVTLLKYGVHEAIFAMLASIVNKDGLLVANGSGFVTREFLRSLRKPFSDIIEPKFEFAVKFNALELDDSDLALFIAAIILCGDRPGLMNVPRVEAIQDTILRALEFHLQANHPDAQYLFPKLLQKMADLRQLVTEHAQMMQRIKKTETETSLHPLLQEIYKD
Protocol: (§1) Compound 1 was tested on all three human PPAR subtypes (hPPAR): hPPARα, hPPARγ, and hPPARδ. All assays were repeated at least three times for each subtype.
(§2) The genes of interest were synthesized and cloned into an appropriate Jump-In™ retargeting vector following the User Guide of the Jump-In™ T-REx™ HEK293 Retargeting Kit (ThermoFisher Catalog No A15008). For example, the vector will be used to transfect and retarget the Jump-In™ HEK293 GripTite™ parental cell line. Stable pools will be antibiotic-selected for about 21 days and tested for target gene expression by functional assay.
(§3) Jump-In™ GripTite™ HEK293 parental cells were plated at 60-80% confluency in a T-75 flask in growth medium without antibiotics and transfected with a 1:1 ratio of expression construct and R4 integrase expression construct (20 μg DNA total) using Lipofectamine® LTX (50 μL) and PLUS™ Reagent (20 μL). Following a 48 hours incubation, cells were selected with 600 μg/mL Geneticin® and 10 μg/mL Blasticidin for ˜21 days in growth medium.
(§4) Jump-In™ GripTite™ HEK293 rPPAR Alpha, Delta or Gamma UAS-bla-Gal4 cell pools were plated in a 384-well plate format (20,000 cells per well) in OptiMeM without FBS in replicates (n=4). Cells were allowed to adhere for 8 hours before addition of Compound 1 (1 mM top concentration, 3-fold dilutions, 10-point titration). After 16 hours, the cells were loaded with LiveBLAzer®, a fluorescent BLA substrate that gives a blue/green readout of expressing/non-expressing cells, respectively. The blue/green readout was measured on a fluorescent plate reader (Tecan Safire II).

[4] = system: PPARδ regulated genes (CPT1b, PDK4, PGC-1α); assay: in vivo gene expression in mouse muscle, 7-day study; settings: male C57BL/6 mice, oral 30 mg/kg once daily 7 days, quadriceps muscle 4 h after final dose
Protocol: Male C57BL/6 mice were administered an oral dose of Compound 1 at 30 mg/kg, once daily for 7 consecutive days. Four hours following the final dose administration on day 7, all mice were euthanized, and two samples of quadriceps muscle were dissected from the right and left limbs.

[5] = biological target: T2, PPARγ (Macaca mulatta, UniProt O18924); assay: PPAR receptor transactivation assay, monkey PPARγ; assay type: cell-based
T2 construct: expressed in transfected cells; host or cells: Jump-In GripTite HEK293
T2 sequence (O18924 238-503 limits assumed): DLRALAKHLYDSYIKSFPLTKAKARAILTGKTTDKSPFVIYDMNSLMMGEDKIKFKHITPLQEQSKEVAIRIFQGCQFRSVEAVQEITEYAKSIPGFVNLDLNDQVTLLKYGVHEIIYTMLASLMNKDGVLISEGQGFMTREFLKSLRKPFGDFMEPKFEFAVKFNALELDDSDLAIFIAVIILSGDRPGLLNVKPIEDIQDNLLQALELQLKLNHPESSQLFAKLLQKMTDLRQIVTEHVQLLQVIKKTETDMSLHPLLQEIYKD
Protocol: as §2, §3
Jump-In™ GripTite™ HEK293 rPPAR Alpha, Delta or Gamma UAS-bla-Gal4 cell pools were plated in a 384-well plate format (20,000 cells per well) in OptiMeM without FBS in replicates (n=4). […] After 16 hours, the cells were loaded with LiveBLAzer®, a fluorescent BLA substrate that gives a blue/green readout of expressing/non-expressing cells, respectively. The blue/green readout was measured on a fluorescent plate reader (Tecan Safire II).

[6] = system: human retinoid X receptor (hRXR); assay: human retinoid X receptor activity; assay type: cell-based
[7] = biological target: T3, hPPARα (Homo sapiens, UniProt Q07869); assay: PPAR receptor transactivation assay, human PPARα; assay type: cell-based
T3 construct: expressed in transfected cells; host or cells: Jump-In GripTite HEK293
T3 sequence (Q07869 239-466 limits assumed): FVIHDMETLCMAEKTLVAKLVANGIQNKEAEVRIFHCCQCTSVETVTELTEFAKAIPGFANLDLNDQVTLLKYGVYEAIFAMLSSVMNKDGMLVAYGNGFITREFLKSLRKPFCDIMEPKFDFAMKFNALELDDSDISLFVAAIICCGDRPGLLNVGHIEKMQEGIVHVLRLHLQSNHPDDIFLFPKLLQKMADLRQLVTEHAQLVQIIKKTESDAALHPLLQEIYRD
Protocol: as §1, §2, §3, §4

[8] = biological target: T4, hPPARγ (Homo sapiens, UniProt P37231); assay: PPAR receptor transactivation assay, human PPARγ; assay type: cell-based
T4 construct: expressed in transfected cells; host or cells: Jump-In GripTite HEK293
T4 sequence (P37231 238-503 limits assumed): T2 sequence (O18924 238-503 limits assumed)
Protocol: as §1, §2, §3, §4

[9] = biological target: T5, PPARδ (Mus musculus, UniProt P35396); assay: PPAR receptor transactivation assay, mouse PPARδ; assay type: cell-based
T5 construct: expressed in transfected cells; host or cells: Jump-In GripTite HEK293
T5 sequence (P35396 210-438 limits assumed): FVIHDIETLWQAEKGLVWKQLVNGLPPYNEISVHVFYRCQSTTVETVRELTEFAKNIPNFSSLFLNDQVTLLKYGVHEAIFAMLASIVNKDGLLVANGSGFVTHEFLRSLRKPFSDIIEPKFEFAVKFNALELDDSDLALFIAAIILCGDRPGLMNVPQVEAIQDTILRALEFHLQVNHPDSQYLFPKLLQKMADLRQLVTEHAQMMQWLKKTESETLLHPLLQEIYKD

[10] = biological target: T6, FXR (Homo sapiens, UniProt Q96RI1); assay: nuclear receptor FXR activity; assay type: cell-based
T6 sequence (Q96RI1 1-486): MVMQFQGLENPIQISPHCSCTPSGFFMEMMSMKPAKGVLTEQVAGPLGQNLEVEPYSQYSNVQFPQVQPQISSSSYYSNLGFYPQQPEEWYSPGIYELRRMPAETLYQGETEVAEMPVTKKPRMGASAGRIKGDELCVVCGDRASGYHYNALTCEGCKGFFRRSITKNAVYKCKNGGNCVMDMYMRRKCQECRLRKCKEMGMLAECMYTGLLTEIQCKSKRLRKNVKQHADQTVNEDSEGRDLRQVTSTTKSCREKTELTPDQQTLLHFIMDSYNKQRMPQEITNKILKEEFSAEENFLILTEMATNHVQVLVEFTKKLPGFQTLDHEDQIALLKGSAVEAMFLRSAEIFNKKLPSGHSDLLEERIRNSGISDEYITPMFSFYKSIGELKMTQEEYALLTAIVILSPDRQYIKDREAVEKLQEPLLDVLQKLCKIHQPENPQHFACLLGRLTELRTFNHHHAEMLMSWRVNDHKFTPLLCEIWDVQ

[11] = PMM patients, 100 mg once daily for 12 weeks

Cc1cc(OC/C=C(/c2ccc(F)cc2)c2ccc(C#CCN3CCOCC3)cc2)ccc1OCC(=O)O [Compound 1, (E)-[4-[3-(4-Fluorophenyl)-3-[4-[3-(morpholin-4-yl)propynyl]phenyl]allyloxy]-2-methyl-phenoxy]acetic acid]
Modified Fatigue Impact Scale scores [1, 11]: trends towards increases | brief pain index (BPI) score, mean [1, 11]: decreased | distance walked during a 12-minute walk test [1, 11]: increase the distance walked; also recorded: Improvements | peak VO2 [1, 11]: trends towards increases | tolerability ([1]; PMM subjects that participated in the study): well tolerated | fatty acid oxidation [2]: dose-dependent increase | EC50 ([3]; Human PPARδ): 31 nM | selectivity for PPARδ over PPARα and PPARγ ([3]; in humans, monkey, and mouse): significantly greater selectivity | agonist type at PPARδ ([3]; in some cases): full agonist | expression patterns of PPARδ regulated genes (CPT1b, PDK4, PGC-1α) [4]: altered the expression patterns | EC50 [5]: > 1000 nM | hRXR activity [6]: did not show any | EC50 ([7]; Human PPARα, read-out: EC50 (nM) Mean): > 10000 nM | pEC50 ([7]; human PPARα, Example 12, read-out: EC50): < 5.00 | activity on PPARα in transactivation assays ([7]; in some cases): negligible activity | agonist type at PPARα ([7]; in some cases): partial agonist | EC50 ([8]; Human PPARγ): > 10000 nM | activity on PPARγ in transactivation assays ([8]; in some cases): negligible activity | agonist type at PPARγ ([8]; in some cases): partial agonist | EC50 [9]: 240 nM | activity on the nuclear receptor FXR [10]: did not show any
